# Data reported in ChEMBL document CHEMBL5370650, “Discovery of Clinical Candidate NT-0796, a Brain-Penetrant and Highly Potent NLRP3 Inflammasome Inhibitor for Neuroinflammatory Disorders” (J Med Chem, 2023).
# Calls of active or inactive are those of the source. The rule behind the calls is not given here.
# Key:
# [1] = target: T1, NACHT, LRR and PYD domains-containing protein 3 (Homo sapiens, UniProt Q96P20); test: Inhibition of NLRP3 inflammasome activation in LPS-activated human PBMC cells assessed as inhibition of ATP/nigericin induced IL-1beta secretion preincubated with LPS for 3 hrs followed by compound addition for 30 mins and further stimulated with ATP for 1 hr by ELISA; format: cell-based
# [2] = target: T1, NACHT, LRR and PYD domains-containing protein 3; test: Inhibition of NLRP3 inflammasome activation in human whole blood assessed as inhibition of LPS/ATP induced IL-1beta secretion preincubated with LPS for 3 hrs followed by compound addition for 30 mins and further stimulated with ATP for 60 mins by ELISA; format: tissue-based
# [3] = Permeability of compound at pH 7.4 incubated for 4 hrs by […] based PAMPA assay; format: ADME; conditions: read-out: permeability
# [4] = Kinetic solubility of compound in PBS at pH7.4 at 1 to 200 uM incubated for 24 hrs by LC-UV analysis; format: physicochemical; conditions: pH 7.4, dose 1-200 µM, read-out: Kinetic_solubility
# [5] = target: T2, Cytochrome P450 1A2 (Homo sapiens, UniProt P05177); test: Reversible inhibition of CYP1A2 in human liver microsomes in presence of NADPH by LC-MS/MS analysis; format: ADME, Microsome
# T2 sequence (P05177 whole entry): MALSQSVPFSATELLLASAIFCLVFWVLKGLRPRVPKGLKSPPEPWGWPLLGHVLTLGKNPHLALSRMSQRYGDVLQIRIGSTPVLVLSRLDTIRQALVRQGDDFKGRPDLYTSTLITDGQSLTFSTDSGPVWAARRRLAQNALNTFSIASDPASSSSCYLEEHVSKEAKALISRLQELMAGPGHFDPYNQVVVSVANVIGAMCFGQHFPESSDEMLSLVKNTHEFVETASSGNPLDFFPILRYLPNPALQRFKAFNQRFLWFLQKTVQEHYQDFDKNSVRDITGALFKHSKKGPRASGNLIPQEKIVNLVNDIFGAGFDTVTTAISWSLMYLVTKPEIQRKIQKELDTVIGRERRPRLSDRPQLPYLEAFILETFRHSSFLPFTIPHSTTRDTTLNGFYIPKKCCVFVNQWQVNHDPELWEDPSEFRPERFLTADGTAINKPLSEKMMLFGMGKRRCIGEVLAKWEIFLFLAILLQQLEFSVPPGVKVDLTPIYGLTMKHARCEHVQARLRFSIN
# [6] = Inhibition of LPS-induced TNFalpha secretion in human PBMC cells incubated for 4 hrs by ELISA
# [7] = Inhibition of LPS-induced IL-6 secretion in human PBMC cells incubated for 4 hrs by ELISA
# [8] = Induction of steatosis in human HepG2 cells assessed as accumulation of triglycerides in cytoplasm by high content screening analysis; format: toxicity, cell-based
# [9] = target: T3, Cytochrome P450 2B6 (Homo sapiens, UniProt P20813); test: Reversible inhibition of CYP2B6 in human liver microsomes in presence of NADPH by LC-MS/MS analysis; format: ADME, Microsome
# T3 sequence (P20813 whole entry): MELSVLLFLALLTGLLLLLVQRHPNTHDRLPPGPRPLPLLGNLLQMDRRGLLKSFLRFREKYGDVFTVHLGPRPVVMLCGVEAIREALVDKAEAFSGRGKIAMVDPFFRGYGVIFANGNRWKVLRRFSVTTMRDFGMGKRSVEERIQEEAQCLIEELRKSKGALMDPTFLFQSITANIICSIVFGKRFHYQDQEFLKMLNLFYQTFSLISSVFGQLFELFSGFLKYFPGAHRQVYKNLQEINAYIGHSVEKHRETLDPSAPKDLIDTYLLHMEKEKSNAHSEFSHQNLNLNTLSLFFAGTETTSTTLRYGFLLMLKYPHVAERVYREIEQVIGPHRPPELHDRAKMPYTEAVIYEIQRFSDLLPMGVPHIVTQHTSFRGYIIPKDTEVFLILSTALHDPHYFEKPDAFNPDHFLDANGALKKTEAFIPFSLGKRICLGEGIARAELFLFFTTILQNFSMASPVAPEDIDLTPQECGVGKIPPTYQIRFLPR
# [10] = target: Cytochrome P450 2C9 (Homo sapiens, UniProt P11712); test: Reversible inhibition of CYP2C9 in human liver microsomes in presence of NADPH by LC-MS/MS analysis; format: ADME, Microsome
# [11] = target: Voltage-gated inwardly rectifying potassium channel KCNH2 (Homo sapiens, UniProt Q12809); test: Inhibition of hERG transfected in CHO cells at -80 mV holding potential by Whole-cell patch clamp assay; format: toxicity, cell-based
# [12] = Ratio of drug concentration in C57BL/6J mouse brain to blood at 3 mg/kg, iv measured after 5 mins by LC-MS/MS analysis; format: ADME, organism-based; conditions: read-out: BBR
# [13] = test system: HepG2; test: Induction of phospholipidosis in human HepG2 cells assessed as increase in phospholipids within lysosome by high content screening analysis; format: toxicity, cell-based
# [14] = target: Cytochrome P450 2C19 (Homo sapiens, UniProt P33261); test: Reversible inhibition of CYP2C19 in human liver microsomes using S-mephenytoin as substrate incubated for 20 mins in presence of NADPH by LC-MS/MS analysis; format: ADME, Microsome
# [15] = target: Cytochrome P450 2D6 (Homo sapiens, UniProt P10635); test: Reversible inhibition of CYP2D6 in human liver microsomes in presence of NADPH by LC-MS/MS analysis; format: ADME, Microsome
# [16] = target: T4, Cytochrome P450 2C8 (Homo sapiens, UniProt P10632); test: Reversible inhibition of CYP2C8 in human liver microsomes in presence of NADPH by LC-MS/MS analysis; format: ADME, Microsome
# T4 sequence (P10632 whole entry): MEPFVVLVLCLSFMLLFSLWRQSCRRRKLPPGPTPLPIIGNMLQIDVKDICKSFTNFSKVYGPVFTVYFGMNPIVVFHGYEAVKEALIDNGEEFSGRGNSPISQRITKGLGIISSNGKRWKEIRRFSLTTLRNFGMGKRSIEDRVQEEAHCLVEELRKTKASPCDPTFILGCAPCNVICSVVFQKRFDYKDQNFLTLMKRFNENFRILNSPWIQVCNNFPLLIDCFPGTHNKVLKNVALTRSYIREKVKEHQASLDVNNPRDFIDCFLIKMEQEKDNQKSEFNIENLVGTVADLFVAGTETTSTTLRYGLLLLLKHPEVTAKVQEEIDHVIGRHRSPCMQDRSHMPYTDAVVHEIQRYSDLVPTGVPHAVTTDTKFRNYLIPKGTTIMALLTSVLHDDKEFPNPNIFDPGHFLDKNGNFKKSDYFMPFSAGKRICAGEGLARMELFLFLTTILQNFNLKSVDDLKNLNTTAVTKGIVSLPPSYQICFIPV
# [17] = Drug concentration in C57BL/6J mouse blood at 3 mg/kg, iv measured after 5 mins by LC-MS/MS analysis; format: ADME, organism-based; conditions: read-out: Ct
# [18] = Mutagenicity in Salmonella typhimurium by Ames test; format: toxicity; conditions: salmonella enterica subsp. enterica serovar typhimurium
# [19] = target: 5-hydroxytryptamine receptor 2B (Homo sapiens) (UniProt P41595); test: Antagonist activity at 5HT2B (unknown origin) at 10 uM by Eurofins-CEREP panel assay relative to control; format: functional; parameters: scale not given: the % may be the effect or the level left; conditions: filed as antagonist
# [20] = Phototoxicity in mouse BALB/3T3 clone A31 cells incubated under dark condition for 1 hr followed by 2.5 J/cm2 UVA light irradiation for 18 mins by neutral red dye based assay; format: toxicity, cell-based; conditions: balb/3t3 clone a31, 1.3 h, time 78 min
# [21] = test system: NLRC4 (Homo sapiens); test: Inhibition of NLRC4 inflammasome activation in human PBMC assessed as reduction in IL-1beta secretion at 3 nM preincubated with LPS for 2.5 hrs followed by compound addition for 30 mins by ELISA
# [22] = Drug concentration in C57BL/6J mouse brain at 3 mg/kg, iv measured after 5 mins by LC-MS/MS analysis; format: ADME, organism-based; conditions: read-out: Ct
# [23] = target: T5, Cytochrome P450 3A4 (Homo sapiens, UniProt P08684); test: Reversible inhibition of CYP3A4 in human liver microsomes using midazolam as substrate in presence of NADPH by LC-MS/MS analysis; format: ADME, Microsome
# [24] = target: T5, Cytochrome P450 3A4; test: Reversible inhibition of CYP3A4 in human liver microsomes using nifedipine as substrate incubated for 5 mins in presence of NADPH by LC-MS/MS analysis; format: ADME, Microsome
# T5 sequence (P08684 whole entry): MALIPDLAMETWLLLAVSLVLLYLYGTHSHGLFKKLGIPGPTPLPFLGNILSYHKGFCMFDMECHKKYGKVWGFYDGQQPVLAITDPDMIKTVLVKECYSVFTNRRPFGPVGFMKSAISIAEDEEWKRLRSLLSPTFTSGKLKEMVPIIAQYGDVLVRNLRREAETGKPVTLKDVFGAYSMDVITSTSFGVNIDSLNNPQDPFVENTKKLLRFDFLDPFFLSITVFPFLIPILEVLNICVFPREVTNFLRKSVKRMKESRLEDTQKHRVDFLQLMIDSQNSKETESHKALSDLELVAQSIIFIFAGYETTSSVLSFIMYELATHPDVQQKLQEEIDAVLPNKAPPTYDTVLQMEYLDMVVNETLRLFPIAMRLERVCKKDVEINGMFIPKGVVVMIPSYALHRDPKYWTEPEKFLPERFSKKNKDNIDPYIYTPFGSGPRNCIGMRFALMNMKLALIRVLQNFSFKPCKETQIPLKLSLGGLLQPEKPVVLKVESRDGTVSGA
# T1 sequence (Q96P20 whole entry, the tested form may be a part): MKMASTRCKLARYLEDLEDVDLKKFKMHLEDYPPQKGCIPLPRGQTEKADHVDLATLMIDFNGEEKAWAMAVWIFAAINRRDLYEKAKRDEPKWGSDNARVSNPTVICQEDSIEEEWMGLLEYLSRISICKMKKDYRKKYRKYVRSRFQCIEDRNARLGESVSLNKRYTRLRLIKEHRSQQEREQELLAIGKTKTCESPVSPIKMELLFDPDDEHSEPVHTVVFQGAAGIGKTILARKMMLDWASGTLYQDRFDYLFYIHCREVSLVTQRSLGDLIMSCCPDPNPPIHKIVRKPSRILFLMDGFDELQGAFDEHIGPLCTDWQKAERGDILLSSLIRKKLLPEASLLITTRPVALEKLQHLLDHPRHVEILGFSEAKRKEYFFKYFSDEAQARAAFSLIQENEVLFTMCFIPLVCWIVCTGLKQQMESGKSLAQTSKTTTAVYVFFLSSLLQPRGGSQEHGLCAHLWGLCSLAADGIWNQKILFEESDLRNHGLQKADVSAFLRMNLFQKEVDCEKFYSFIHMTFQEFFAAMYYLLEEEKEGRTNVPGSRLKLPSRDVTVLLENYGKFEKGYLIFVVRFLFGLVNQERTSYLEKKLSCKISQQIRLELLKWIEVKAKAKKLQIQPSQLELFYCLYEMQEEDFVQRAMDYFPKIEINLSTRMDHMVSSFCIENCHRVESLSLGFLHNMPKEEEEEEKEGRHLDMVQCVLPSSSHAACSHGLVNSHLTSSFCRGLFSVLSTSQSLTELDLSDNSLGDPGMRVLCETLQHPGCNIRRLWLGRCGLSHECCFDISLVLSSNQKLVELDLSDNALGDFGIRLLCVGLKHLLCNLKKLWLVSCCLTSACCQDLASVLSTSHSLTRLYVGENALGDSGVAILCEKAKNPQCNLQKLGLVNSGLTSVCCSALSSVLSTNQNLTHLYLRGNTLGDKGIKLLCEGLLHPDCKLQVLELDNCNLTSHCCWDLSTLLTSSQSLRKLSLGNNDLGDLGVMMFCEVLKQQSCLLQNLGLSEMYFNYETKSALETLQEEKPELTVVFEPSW
# Chain of Cytochrome P450 2C19 (P33261 whole entry): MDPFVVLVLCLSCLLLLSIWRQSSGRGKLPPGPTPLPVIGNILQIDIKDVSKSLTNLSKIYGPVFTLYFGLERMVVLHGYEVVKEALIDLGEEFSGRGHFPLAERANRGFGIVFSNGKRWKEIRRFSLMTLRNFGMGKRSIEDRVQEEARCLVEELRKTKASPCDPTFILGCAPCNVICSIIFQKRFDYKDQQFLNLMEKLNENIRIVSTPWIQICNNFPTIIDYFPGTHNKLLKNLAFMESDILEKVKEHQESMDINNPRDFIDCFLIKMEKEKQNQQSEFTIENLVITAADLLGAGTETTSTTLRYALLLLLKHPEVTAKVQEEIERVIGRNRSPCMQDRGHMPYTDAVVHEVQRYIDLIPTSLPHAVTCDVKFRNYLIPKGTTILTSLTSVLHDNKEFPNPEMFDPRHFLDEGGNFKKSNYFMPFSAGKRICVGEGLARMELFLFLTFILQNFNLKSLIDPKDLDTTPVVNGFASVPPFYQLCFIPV
# Chain of Cytochrome P450 2C9 (P11712 whole entry): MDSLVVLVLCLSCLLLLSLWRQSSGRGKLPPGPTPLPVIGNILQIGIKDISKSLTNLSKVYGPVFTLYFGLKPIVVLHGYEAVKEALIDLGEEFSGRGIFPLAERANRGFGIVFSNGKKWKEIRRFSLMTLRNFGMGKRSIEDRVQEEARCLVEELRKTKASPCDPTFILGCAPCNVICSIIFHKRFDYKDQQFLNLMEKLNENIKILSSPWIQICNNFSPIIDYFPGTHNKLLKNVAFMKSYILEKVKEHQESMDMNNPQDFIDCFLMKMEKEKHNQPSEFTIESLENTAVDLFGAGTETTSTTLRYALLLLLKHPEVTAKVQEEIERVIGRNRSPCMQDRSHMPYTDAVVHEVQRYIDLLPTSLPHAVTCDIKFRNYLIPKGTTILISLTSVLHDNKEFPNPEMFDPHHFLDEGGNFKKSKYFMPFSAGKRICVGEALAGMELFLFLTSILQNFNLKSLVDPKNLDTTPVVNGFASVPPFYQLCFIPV
# Chain of Cytochrome P450 2D6 (P10635 whole entry): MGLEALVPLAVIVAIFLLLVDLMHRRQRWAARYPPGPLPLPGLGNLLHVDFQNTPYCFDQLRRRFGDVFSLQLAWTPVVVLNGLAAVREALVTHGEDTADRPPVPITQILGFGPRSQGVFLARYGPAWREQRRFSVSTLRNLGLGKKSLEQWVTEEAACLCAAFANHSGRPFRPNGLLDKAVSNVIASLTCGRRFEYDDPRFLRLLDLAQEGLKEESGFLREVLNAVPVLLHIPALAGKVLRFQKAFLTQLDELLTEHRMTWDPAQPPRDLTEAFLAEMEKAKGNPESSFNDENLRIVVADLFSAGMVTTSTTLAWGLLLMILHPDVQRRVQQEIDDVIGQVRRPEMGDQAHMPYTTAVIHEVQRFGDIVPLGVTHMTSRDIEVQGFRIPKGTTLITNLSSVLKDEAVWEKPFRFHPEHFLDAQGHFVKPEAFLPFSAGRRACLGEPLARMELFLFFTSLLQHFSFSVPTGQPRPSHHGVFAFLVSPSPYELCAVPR
# Chain of Voltage-gated inwardly rectifying potassium channel KCNH2 (Q12809 whole entry): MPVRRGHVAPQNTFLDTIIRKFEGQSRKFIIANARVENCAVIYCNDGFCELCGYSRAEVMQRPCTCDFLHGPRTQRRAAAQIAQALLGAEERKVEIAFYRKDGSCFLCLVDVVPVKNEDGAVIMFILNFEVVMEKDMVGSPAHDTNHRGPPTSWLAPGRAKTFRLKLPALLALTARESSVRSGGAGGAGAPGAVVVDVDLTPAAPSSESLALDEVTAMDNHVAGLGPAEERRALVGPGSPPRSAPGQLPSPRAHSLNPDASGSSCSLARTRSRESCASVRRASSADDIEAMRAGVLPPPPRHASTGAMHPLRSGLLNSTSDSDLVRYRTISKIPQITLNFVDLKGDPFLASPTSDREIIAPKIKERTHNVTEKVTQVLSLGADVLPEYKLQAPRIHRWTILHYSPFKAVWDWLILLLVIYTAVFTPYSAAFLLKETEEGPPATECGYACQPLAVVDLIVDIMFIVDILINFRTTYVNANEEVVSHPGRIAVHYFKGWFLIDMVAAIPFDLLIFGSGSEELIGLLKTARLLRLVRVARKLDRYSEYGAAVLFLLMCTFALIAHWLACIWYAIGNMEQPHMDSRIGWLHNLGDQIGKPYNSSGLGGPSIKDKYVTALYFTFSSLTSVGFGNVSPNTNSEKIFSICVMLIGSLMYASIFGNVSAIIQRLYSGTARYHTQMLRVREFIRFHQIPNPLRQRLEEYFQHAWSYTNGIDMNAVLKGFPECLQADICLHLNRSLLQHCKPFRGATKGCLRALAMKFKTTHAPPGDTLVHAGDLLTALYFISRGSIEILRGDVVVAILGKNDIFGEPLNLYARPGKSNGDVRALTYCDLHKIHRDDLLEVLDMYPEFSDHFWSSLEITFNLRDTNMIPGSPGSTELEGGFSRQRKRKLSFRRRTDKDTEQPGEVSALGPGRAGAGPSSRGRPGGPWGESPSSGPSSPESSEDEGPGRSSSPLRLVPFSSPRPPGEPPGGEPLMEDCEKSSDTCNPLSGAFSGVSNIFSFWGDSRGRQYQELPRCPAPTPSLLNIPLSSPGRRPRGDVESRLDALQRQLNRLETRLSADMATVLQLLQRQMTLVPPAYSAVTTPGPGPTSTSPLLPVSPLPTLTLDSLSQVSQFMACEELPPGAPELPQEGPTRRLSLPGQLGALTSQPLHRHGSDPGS
# Chain of 5-hydroxytryptamine receptor 2B (Homo sapiens) (P41595 whole entry): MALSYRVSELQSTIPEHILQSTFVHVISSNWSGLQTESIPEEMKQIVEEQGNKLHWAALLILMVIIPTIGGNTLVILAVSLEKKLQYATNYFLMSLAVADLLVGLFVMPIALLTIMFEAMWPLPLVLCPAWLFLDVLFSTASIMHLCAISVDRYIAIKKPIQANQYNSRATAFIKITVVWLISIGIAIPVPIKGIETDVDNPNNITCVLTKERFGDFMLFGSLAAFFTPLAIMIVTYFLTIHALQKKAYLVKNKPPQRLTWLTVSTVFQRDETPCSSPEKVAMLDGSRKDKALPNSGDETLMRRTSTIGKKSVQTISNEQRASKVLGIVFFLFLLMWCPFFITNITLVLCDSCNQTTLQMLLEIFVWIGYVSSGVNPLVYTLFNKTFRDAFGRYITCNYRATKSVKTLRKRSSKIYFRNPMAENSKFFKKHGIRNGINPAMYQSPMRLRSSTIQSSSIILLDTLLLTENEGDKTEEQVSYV
compound,measurement,setting,value
CCOC(=O)COC(=O)Nc1cc(C)ccc1C,IC50,[1],0.97 µM
same,IC50,[2],2.9 µM
CC(C)OC(=O)[C@@H](Cc1cnccn1)OC(=O)Nc1c2c(cc3c1CCC3)CCC2,Papp at 4 h,[3],13.7 ×10⁻⁶ cm/s
same,solubility kinetic at 24 h,[4],5.5 µM
same,IC50,[5],1.1 µM
CC(C)(O)c1coc(S(=O)(=O)NC(=O)Nc2c3c(cc4c2CCC4)CCC3)c1,Papp at 4 h,[3],< 0.0003 ×10⁻⁶ cm/s
same,IC50,[6],> 40 µM
same,IC50,[7],> 40 µM
CCOC(=O)COC(=O)Nc1c(C)cccc1C,IC50,[1],0.93 µM
same,IC50,[2],1.1 µM
COC(=O)CN(C)C(=O)Nc1c2c(cc3c1CCC3)CCC2,IC50,[1],> 40 µM
same,IC50,[2],> 40 µM
CC(C)OC(=O)[C@@H](Cc1ncccn1)OC(=O)Nc1c2c(cc3c1CCC3)CCC2 [NT-0796],Papp at 4 h,[3],11.8 ×10⁻⁶ cm/s
same,MEC,[8],> 40 µM
same,solubility kinetic at 24 h,[4],28 µM
same,IC50,[9],> 30 µM
same,IC50,[10],> 30 µM
same,IC50,[11],> 30 µM
same,Kp at 5 min,[12],0.79
same,MEC,[13],> 40 µM
same,IC50,[14],> 30 µM
same,IC50,[6],> 2 µM
same,IC50,[15],> 30 µM
same,IC50,[16],> 30 µM
same,IC50,[5],> 30 µM
same,concentration at 5 min,[17],610 ng/mL
same,Activity,[18],Non-Toxic
same,IC50,[7],> 2 µM
same,Activity,[19],90%
same,Activity,[20],Non-Toxic
same,inhibition,[21],inactive
same,concentration at 5 min,[22],479 ng/g
same,IC50,[23],> 30 µM
same,IC50,[24],> 30 µM
O=C(Nc1c2c(cc3c1CCC3)CCC2)O[C@H](Cc1ncccn1)C(=O)OC1CCCC1,Papp at 4 h,[3],3.5 ×10⁻⁶ cm/s
same,solubility kinetic at 24 h,[4],< 1 µM
CCOC(=O)COC(=O)Nc1c(F)cccc1F,IC50,[1],1.9 µM
same,IC50,[2],9.4 µM
CCOC(=O)COC(=O)Nc1ccccc1C(C)C,IC50,[1],1.6 µM
same,IC50,[2],5.5 µM
CCOC(=O)COC(=O)N(C)c1c2c(cc3c1CCC3)CCC2,IC50,[1],> 40 µM
same,IC50,[2],> 40 µM
CCOC(=O)COC(=O)Nc1c(C)cccc1CC,IC50,[1],1.5 µM
same,IC50,[2],2.4 µM
CCOC(=O)[C@@H](Cc1ncccn1)NC(=O)Nc1c2c(cc3c1CCC3)CCC2,Papp at 4 h,[3],8.2 ×10⁻⁶ cm/s
same,IC50,[6],2.7 µM
same,IC50,[7],4.3 µM
CCOC(=O)COC(=O)Nc1ccccc1C#N,IC50,[1],5.5 µM
same,IC50,[2],6.8 µM
CCOC(=O)COC(=O)Nc1c(Cl)cccc1Cl,IC50,[1],1 µM
same,IC50,[2],9.2 µM
CCOC(=O)COC(=O)Nc1c(CC)cccc1CC,IC50,[1],0.81 µM
same,IC50,[2],13 µM
CC(C)OC(=O)[C@@H](Cn1cc(C#N)cn1)OC(=O)Nc1c2c(cc3c1CCC3)CCC2,Papp at 4 h,[3],5 ×10⁻⁶ cm/s
same,solubility kinetic at 24 h,[4],< 1 µM
same,IC50,[14],4.4 µM
O=C(Nc1c2c(cc3c1CCC3)CCC2)O[C@H](Cc1ncccn1)C(=O)O,Papp at 4 h,[3],< 0.0002 ×10⁻⁶ cm/s
same,IC50,[1],0.066 µM
same,solubility kinetic at 24 h,[4],> 200 µM
same,IC50,[10],> 30 µM
same,Kp at 5 min,[12],0.07
same,IC50,[2],4.7 µM
same,IC50,[14],> 30 µM
same,IC50,[15],> 30 µM
same,IC50,[5],> 30 µM
same,concentration at 5 min,[17],1160 ng/mL
same,concentration at 5 min,[22],91.7 ng/g
same,IC50,[24],> 30 µM
CCOC(=O)COC(=O)Nc1c(C)cc(C)cc1C,IC50,[1],0.59 µM
same,IC50,[2],3.9 µM
CCOC(=O)COC(=O)Nc1ccccc1C(F)(F)F,IC50,[1],> 20 µM
same,IC50,[2],> 20 µM
CC(C)OC(=O)[C@@H](Cn1cncn1)OC(=O)Nc1c2c(cc3c1CCC3)CCC2,Papp at 4 h,[3],13.7 ×10⁻⁶ cm/s
same,solubility kinetic at 24 h,[4],37 µM
same,IC50,[5],0.18 µM
CCOC(=O)COC(=O)Nc1c(C(C)C)cccc1C(C)C,IC50,[1],10 µM
same,IC50,[2],> 20 µM
CCOC(=O)COC(=O)Nc1ccccc1OC(F)(F)F,IC50,[1],> 20 µM
same,IC50,[2],> 20 µM
CCOC(=O)CNC(=O)Oc1c2c(cc3c1CCC3)CCC2,IC50,[1],> 40 µM
same,IC50,[2],> 40 µM
